According to publication PMC8072159, “5-Bis-(2,6-difluoro-benzylidene) Cyclopentanone Acts as a Selective 11β-Hydroxysteroid Dehydrogenase one Inhibitor to Treat Diet-Induced Nonalcoholic Fatty Liver Disease in Mice” (Frontiers in Pharmacology, 2021):
Entries after “also recorded” stand apart in the source; their conditions may differ.

Tested on: HFD-induced NAFLD mice
Experiment: HFD-induced NAFLD mouse model, WZS08 by gavage for 100 days
Format: in vivo
Conditions: for Body weight / Dorsal adipose weight / Epididymal adipose weight / Mesenteric adipose weight / Thymic adipose weight / Total hepatic weight: mean ± SEM
Method: The KM mice were randomly divided into six groups, including a regular chow (Group C), HFD (Group M) as a model control group, HFD supplemented with various doses of WZS08, 1 (Group M + W1), 2 (Group M + W2), and 4 (Group + W4) mg/kg, 20 mice per group. Mice were housed five animals per cage. Mice were maintained at a constant temperature (25 ± 3°C) for a 12-h light-dark cycle with free access to food and water. After a week of diet adaptation, the mice were fed with WZS08 dissolved in 1% sodium carboxymethyl cellulose (CMC-Na) or 1% CMC-Na for 100 days alone. Each mouse was gavaged daily with 0.5 ml vehicle (1% CMC-Na) or drug in 1%CMC-Na. By the end of the treatment, the mice were killed by CO2, and the weights of body, liver, epididymal fat, mesenteric fat, and dorsal fat were measured. […]
Quantitative Real-Time Polymerase Chain Reaction
Total RNA was isolated from mouse liver using Trizol kit according to the manufacturer’s instruction. To reduce genomic DNA contamination, total RNAs were treated with ribonuclease-free deoxyribonuclease I (Thermo Fisher Scientific, Waltham, MA, United States) for 1 h at 37°C. 1 μg RNA was used to synthesize the first strand cDNA by reverse transcription kit. qPCR was carried out using SYBR GREEN as an indicator using Bio-Rad real time PCR system. The standard curve method was adopted as previously described ([Lv et al., 2019]). The Ct values were recorded after a series of diluted standards of mouse liver cDNAs, and the linear equation of Ct values vs. logarithm [dilution of standards] was generated, and the concentration of the target mRNA was calculated according to their Ct value. The result was normalized to Gapdh (encoding GAPDH) and Rps16 as the internal controls. The mRNA levels of Acs2 (encoding acetyl-CoA synthetase2), Hsd11b1 (encoding 11β–HSD1), Ldlr (encoding LDLR), Plin2 (encoding PLIN2), and Plin3 (encoding PLIN3) were evaluated. There were no changes in Gapdh and Rps16 mRNA levels between groups and the test mRNA levels were adjusted to Gapdh. Primer information is listed in Supplementary Table S1.
Measurement of Serum Insulin and Corticosterone Levels and Blood Lipid Levels
On the last day of the experiment, the mice were fasted for 6 h (with free access to drinking water), and then blood and tissues were sampled. Blood samples were collected. The blood sample was centrifuged at 5000 rpm for 10 min to collect the serum, and the serum was frozen at -40°C until use. According to standard clinical protocols, the levels of serum glucose, low-density lipoprotein (LDL), high-density lipoprotein (HDL), total cholesterol, and triglyceride (TG) were measured using Hitachi 7600 biochemical analyzer (Hitachi, Japan). In addition, serum insulin and corticosterone levels were evaluated using the ultrasensitive mouse insulin ELISA kit (CrystalChem, IL, USA) and the commercially available corticosterone ELISA kit (Abnova, Taiwan, China) according to the manufacturers’ instructions.
Protein Expression Analysis
Total hepatic protein extract was obtained as previously described ([Lazaro et al., 2013]). The protein was separated by SDS–PAGE and transferred to a 0.2 μm PVDF membrane. The primary antibodies used were: 11β-HSD1 (rabbit polyclonal antibody, Abcam, catalog # ab39364; being blocked with 11β-HSD1 peptide, #ab101097, San Francisco, CA), ACS2 (Abcam, catalog # ab229958, San Francisco, CA, United States), and β-actin (ACTB, Cell signaling, Danvers, MA, United States). Goat anti-rabbit HRP was used as a secondary antibody. Finally, chemiluminescence emitted by the immunoreactive protein was detected by an ECL advance agent, and visualized with a MicroChemi Imaging system and qualified by a densitometry using AlphaEaseFC (ProteinSample, CA, United States). Relative protein levels were normalized by ACTB.
Before hematoxylin and eosin (HE) staining, the livers of KM mice were fixed in 10% formalin, dehydrated, and embedded in paraffin, as previously described ([Andres-Manzano et al., 2015]). […]

[1] = HFD mice, 4 mg/kg (M + W4), 100 days
[2] = HFD mice, 1, 2, and 4 mg/kg, vs Group M, qPCR
[3] = HFD plus 1 mg/kg WZS08 (M + W1), 100 days
[4] = HFD plus 2 mg/kg WZS08 (M + W2), 100 days
[5] = HFD plus 4 mg/kg WZS08 (M + W4), 100 days

Question: How did the Fabp4 expression (HFD mice, 1 mg/kg, 100 days) turn out when `O=C1/C(=C/c2c(F)cccc2F)CC/C1=C\c1c(F)cccc1F` [WZS08, (2E,5E)-2,5-bis(2,6-difluorobenzylidene) Cyclopentanone] was run?
Answer: Its Fabp4 expression is “up-regulated”.

Question: What about the hepatic fat ratio (HFD mice, 1 mg/kg, 100 days) of the same molecule?
Answer: Its hepatic fat ratio is “significantly reduced”.

Question: And the serum cholesterol (HFD mice, 1 mg/kg, 100 days)?
Answer: The serum cholesterol was “significantly reduced”.

Question: And the serum low-density lipoprotein (HFD mice, 1 mg/kg, 100 days)?
Answer: Its serum low-density lipoprotein is “significantly reduced”.

Question: And the serum triglycerides (HFD mice, 1 mg/kg, 100 days)?
Answer: The serum triglycerides was “significantly reduced”.

Question: What about the “serum HDL level” value [1] of the same molecule?
Answer: The value was “greatly reduced”.

Question: What about the “serum LDL level” value [1] of the same molecule?
Answer: The value was “greatly reduced”.

Question: What about the serum cholesterol level [1] of the same molecule?
Answer: Its serum cholesterol level is “greatly reduced”.

Question: What about the serum triglyceride level [1] of the same molecule?
Answer: Its serum triglyceride level is “greatly reduced”.

Question: And the insulin index (HFD mice, 4 mg/kg, 100 days, vs HFD group)?
Answer: The insulin index was “significantly lowered”.

Question: What about the serum insulin levels (HFD mice, 4 mg/kg, 100 days, vs HFD group, 4 mg/kg) of the same molecule?
Answer: The serum insulin levels was “significantly lowered; also recorded: completely reduced it to control level”.

Question: What about the “liver lipid content (HE staining)” value (HFD mice, 1, 2, 4 mg/kg) of the same molecule?
Answer: The value was “remarkably reduced”.

Question: What about the “insulin resistance (HOMA-IR)” value (HFD mice, 1, 2, 4 mg/kg, 100 days) of the same molecule?
Answer: Its value is “dose-dependently reduced”.

Question: And the body weight changes (HFD mice, 1, 2, 4 mg/kg, 100 days, vs HFD control)?
Answer: Its body weight changes is “dose-dependently reduced”.

Question: And the “Acs2 expression in liver” value [2]?
Answer: The value was “up-regulated”.

Question: What about the “Plin2 expression in liver” value [2] of the same molecule?
Answer: The value was “down-regulated”.

Question: What about the “morphology of the non-alcoholic fatty liver” value (HFD mice, 100 days) of the same molecule?
Answer: The value was “significantly improved”.

Question: What about the liver fat content (HFD mice, doses of 2 and 4 mg/kg) of the same molecule?
Answer: Its liver fat content is “significantly decreased”.

Question: And the Plin2 expression (HFD mice, liver, 1 mg/kg, 100 days)?
Answer: Its Plin2 expression is “down-regulated”.

Question: And the Body weight [3]?
Answer: Its Body weight is 52.46 ± 1.28 g.

Question: And the Dorsal adipose weight [3]?
Answer: The Dorsal adipose weight was 0.68 ± 0.092 g.

Question: And the Epididymal adipose weight [3]?
Answer: Its Epididymal adipose weight is 2.05 ± 0.230 g.

Question: And the Mesenteric adipose weight [3]?
Answer: Its Mesenteric adipose weight is 0.64 ± 0.074 g.

Question: And the Thymic adipose weight [3]?
Answer: Its Thymic adipose weight is 0.08 ± 0.01 g.

Question: And the Total hepatic weight [3]?
Answer: Its Total hepatic weight is 2.79 ± 0.12 g.

Question: What about the Body weight [4] of the same molecule?
Answer: The Body weight was 50.25 ± 1.01 g.

Question: And the Dorsal adipose weight [4]?
Answer: The Dorsal adipose weight was 0.54 ± 0.049 g.

Question: What about the Epididymal adipose weight [4] of the same molecule?
Answer: Its Epididymal adipose weight is 1.52 ± 0.138 g.

Question: What about the Mesenteric adipose weight [4] of the same molecule?
Answer: The Mesenteric adipose weight was 0.55 ± 0.043 g.

Question: What about the Thymic adipose weight [4] of the same molecule?
Answer: The Thymic adipose weight was 0.06 ± 0.00 g.

Question: What about the Total hepatic weight [4] of the same molecule?
Answer: The Total hepatic weight was 2.48 ± 0.06 g.

Question: What about the Body weight [5] of the same molecule?
Answer: The Body weight was 49.00 ± 1.22 g.

Question: And the Dorsal adipose weight [5]?
Answer: Its Dorsal adipose weight is 0.55 ± 0.070 g.

Question: And the Epididymal adipose weight [5]?
Answer: The Epididymal adipose weight was 1.54 ± 0.20 g.

Question: What about the Mesenteric adipose weight [5] of the same molecule?
Answer: Its Mesenteric adipose weight is 0.54 ± 0.048 g.

Question: And the Thymic adipose weight [5]?
Answer: Its Thymic adipose weight is 0.077 ± 0.00 g.

Question: And the Total hepatic weight [5]?
Answer: Its Total hepatic weight is 2.29 ± 0.06 g.

Question: And the blood glucose (HFD-treated mice, oral administration)?
Answer: The blood glucose was “did not show significant changes”.
